Laboratory results published in patent US5599953A, “C-glycoside analogues of N-(4-hydroxyphenyl)retinamide-O-glucuronide” (The Ohio State Research Foundation, priority 1995, dated 1997).
Read-outs that look alike come from different tables or passages of the source.

Columns and labels:
[1] = molecular target: T1, mRARγ (Mus musculus, UniProt P18911); assay: Drug competition with (3H)retinoic acid binding, mRARγ; conditions: read-out: percent reduction of binding of the (3H)retinoic acid, mRARγ; 1 μM drug; 5 nM [3H]RA
T1 construct: made in house; host or cells: Spodoptera frugiperda insect cells, baculovirus (whole cell extract)
T1 sequence (P18911 1-458): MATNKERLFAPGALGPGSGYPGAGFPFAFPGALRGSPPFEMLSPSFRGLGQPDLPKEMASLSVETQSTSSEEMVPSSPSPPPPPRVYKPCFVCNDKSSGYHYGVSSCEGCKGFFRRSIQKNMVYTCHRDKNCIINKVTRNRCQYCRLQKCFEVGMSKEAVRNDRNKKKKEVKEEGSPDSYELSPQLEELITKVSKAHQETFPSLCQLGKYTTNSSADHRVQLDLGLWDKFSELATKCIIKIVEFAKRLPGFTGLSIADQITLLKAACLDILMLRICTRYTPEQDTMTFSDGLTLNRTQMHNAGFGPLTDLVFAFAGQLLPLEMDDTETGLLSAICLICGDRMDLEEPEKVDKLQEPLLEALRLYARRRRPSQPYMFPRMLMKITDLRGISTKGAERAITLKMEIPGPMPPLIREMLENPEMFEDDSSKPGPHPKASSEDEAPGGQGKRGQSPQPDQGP

[2] = molecular target: T2, β-glucuronidase (Homo sapiens, UniProt P08236); conditions: background statement; cited from earlier work
T2 sequence (P08236 23-651): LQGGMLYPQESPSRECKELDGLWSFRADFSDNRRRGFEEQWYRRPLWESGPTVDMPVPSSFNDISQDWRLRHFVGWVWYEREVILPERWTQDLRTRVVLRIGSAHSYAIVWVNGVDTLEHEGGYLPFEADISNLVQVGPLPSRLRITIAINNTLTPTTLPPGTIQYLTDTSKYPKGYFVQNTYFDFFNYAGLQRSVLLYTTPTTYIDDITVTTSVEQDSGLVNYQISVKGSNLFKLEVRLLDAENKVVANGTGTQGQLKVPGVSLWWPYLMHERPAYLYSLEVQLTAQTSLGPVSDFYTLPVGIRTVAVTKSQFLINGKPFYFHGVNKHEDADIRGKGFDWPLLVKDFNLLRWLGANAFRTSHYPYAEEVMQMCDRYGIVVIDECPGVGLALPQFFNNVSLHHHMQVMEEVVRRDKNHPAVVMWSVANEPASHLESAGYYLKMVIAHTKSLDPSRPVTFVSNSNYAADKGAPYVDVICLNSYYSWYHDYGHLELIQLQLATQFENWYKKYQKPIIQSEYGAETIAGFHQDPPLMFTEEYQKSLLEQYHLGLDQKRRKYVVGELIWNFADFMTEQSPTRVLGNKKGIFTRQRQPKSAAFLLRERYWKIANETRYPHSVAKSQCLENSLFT

[3] = background statement; cited from earlier work
[4] = Acid stability, 0.1N methanolic HCl at 37° C. for 2 hours; assay type: physicochemical
Procedure: To determine the stability of the C-glucopyranosiduronate linkage towards acidic conditions, samples of 4-HPR-O-glucuronide, 4-(retinamido)phenyl-C-glucuronide and 4-(retinamido)benzyl-C-glucuronide were treated with 0.1N methanolic HCl at 37° C. for 2 hours.

[5] = test system: MCF-7 human mammary cell tumor culture; conditions: Bhatnagar et al.; cited from earlier work
[6] = molecular target: T3, mRARα (Mus musculus, UniProt P11416); assay: Drug competition with (3H)retinoic acid binding, mRARα; conditions: read-out: percent reduction of binding of the (3H)retinoic acid, mRARα; 1 μM drug; 5 nM [3H]RA
T3 construct: made in house; host or cells: Spodoptera frugiperda insect cells, baculovirus (whole cell extract)
T3 sequence (P11416 1-462): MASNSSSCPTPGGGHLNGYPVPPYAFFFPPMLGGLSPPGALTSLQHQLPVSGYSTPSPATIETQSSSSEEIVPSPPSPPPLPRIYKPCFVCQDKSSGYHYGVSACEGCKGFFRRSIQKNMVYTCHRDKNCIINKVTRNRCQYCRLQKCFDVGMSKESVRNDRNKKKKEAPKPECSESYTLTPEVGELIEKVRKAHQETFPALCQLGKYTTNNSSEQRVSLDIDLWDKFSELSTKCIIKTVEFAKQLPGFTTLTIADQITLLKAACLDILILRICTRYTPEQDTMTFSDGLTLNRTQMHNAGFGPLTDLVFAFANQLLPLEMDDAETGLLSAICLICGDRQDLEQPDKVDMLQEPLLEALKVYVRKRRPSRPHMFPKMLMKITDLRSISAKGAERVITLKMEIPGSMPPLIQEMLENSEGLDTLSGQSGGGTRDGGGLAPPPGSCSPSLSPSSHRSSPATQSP

[7] = molecular target: T4, mRARβ (Mus musculus, UniProt P22605); assay: Drug competition with (3H)retinoic acid binding, mRARβ; conditions: read-out: percent reduction of binding of the (3H)retinoic acid, mRARβ; 1 μM drug; 5 nM [3H]RA
T4 construct: made in house; host or cells: Spodoptera frugiperda insect cells, baculovirus (whole cell extract)
T4 sequence (P22605 1-448 isoform P22605-3): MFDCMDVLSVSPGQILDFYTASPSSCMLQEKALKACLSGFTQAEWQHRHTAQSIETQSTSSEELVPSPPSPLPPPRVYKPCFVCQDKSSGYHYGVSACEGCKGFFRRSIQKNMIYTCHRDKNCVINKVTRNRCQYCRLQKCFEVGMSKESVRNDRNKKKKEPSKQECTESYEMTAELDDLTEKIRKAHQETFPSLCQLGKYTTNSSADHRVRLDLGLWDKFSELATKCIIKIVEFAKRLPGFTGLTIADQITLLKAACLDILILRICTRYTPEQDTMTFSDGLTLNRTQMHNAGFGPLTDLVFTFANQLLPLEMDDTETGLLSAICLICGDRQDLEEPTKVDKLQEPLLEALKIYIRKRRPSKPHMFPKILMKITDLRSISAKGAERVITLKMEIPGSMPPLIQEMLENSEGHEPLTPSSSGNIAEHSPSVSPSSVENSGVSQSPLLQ

[8] = molecular target: T2, β-glucuronidase; assay: Stability toward β-glucuronidase mediated hydrolysis; assay type: in vitro ADME; conditions: β-glucuronidase
Procedure: Similarly 1-(D-glucopyranosyluronosyl) retinamide and RAG were evaluated for their stability toward β-glucuronidase medicated hydrolysis under the same conditions as described above.

For `CC1=C(/C=C/C(C)=C/C=C/C(C)=C/C(=O)Nc2ccc(O[C@@H]3O[C@H](C(=O)O)[C@@H](O)[C@H](O)[C@H]3O)cc2)C(C)(C)CCC1` [4-HPR-O-glucuronide, N-(4-hydroxyphenyl)retinamide-O-glucuronide], the inhibition at 1 µM [1] is given as 7%, the “hydrolysis by β-glucuronidase” value [2] is given as “also by the enzyme β-glucuronidase” and the “in vivo half life” value [2] is given as “quite limited”. The “stability in acidic media” value [3] was “hydrolyzed in acidic media”, the “acid hydrolysis (stability)” value [4] was “had undergone substantial hydrolysis of the ether linkage” and the “antiproliferative activity and toxicity vs 4-HPR” value [5] was “greater antiproliferative activity and less toxicity”. The inhibition at 1 µM [6] was 14%, the inhibition at 1 µM [7] was 4% and the “hydrolysis by β-glucuronidase” value [8] was “is hydrolysed to glucuronic acid and the aglycone by β-glucuronidase”.
